# Reference: paper PMC8176454, “Synthesis and Assessment of Novel Probes for Imaging Tau Pathology in Transgenic Mouse and Rat Models” (ACS Chemical Neuroscience, 2021)
# Tests used:
# [1] = tested on: tau aggregates in DRG neurons from P301S tau mice; experiment: Fluorescence binding to cultured DRG neurons from P301S tau transgenic mice; type: cell-based, mouse; settings: IC50 could not be derived because of low affinity
# Procedure: P301S tau mice with aggregated tau in the brain also express aggregated tau in DRG neurons.[24]−[26] […] To estimate the apparent affinity of LM229 to tau aggregates directly in living neurons, we imaged live neurons after 20 min incubation with various concentrations of LM229 (Figure 4A). […] LM229 binding was specific to neurons with aggregated tau, as detected with the AT100 antibody[18],[22],[23],[26] (Figure 4D). […] Although PBB3 also bound to DRG neurons with tau aggregates at 30–100 μM, it was not possible to derive an IC50 value because of its low affinity in this assay (Supporting Information, Figure S2). […] The shift from nanomolar to micromolar affinity between binding to heparin tau fibrils and tau aggregates in P301S tau neurons may reflect the different environment and assay conditions or the different conformations that tau aggregates assume in neurons compared to heparin–tau complexes.[27]
# Neurons were prepared from phenotypic end stage 5–7 month old P301S tau mice and cultured as described previously.[24] For live staining, neurons cultured for 2 days were washed in PBS and incubated with various concentrations of LM229 for 20 min at room temperature. After three washes in PBS, neurons were imaged on a Leica DMI 4000B microscope using a DFC3000 G camera and application suite 4.0.0.11706. The dead cell stain Propidium iodide (1 μg/mL) was added to ensure that only live cells were imaged. Phase contrast images were taken to show viable neurons. For fixed cell staining, neurons were fixed for 20 min at room temperature in 4% paraformaldehyde, washed in PBS, and permeabilized in PBS containing 0.3% Triton X-100. LM299 was added as described for live cells, and cells were probed with AT100 (1:1000, MN1060) followed by anti-mouse AlexaFluor568 secondary antibody. Cultures were co-stained with the nuclear dye DAPI (blue) to reveal total cells. […]
# (§1) Binding to cultured neurons from P301S tau transgenic mice
# DRG were incubated with the indicated concentrations of LM229 or PBB3 for 20 minutes at room temperature, washed 3 times in PBS, and imaged on a Leica DMI 4000B microscope using a Leica DFC3000 G camera and the Leica application suite 4.0.0.11706. Fluorescence intensity was measured in 10-16 neurons each from 3 independent cultures using Image J (imagej.nih.gov/ij/). Results shown are mean ± SD. Non linear least squares curve fitting was applied using http://faculty.gvsu.edu/carlsont/232lab/nonlin2.html. No Km value was […]
# Figure S2: Binding of LM229 and PBB3 to DRG neurons with tau aggregates […]
# (1 picture or pasted object on this page, not shown here)
# [2] = target: T1, tau aggregates in brain of P301S tau mice (Homo sapiens, UniProt P10636, P618S); experiment: Ex vivo mouse study: i.v. injection, brain sections imaged after 1 h; type: in vivo; settings: i.v. injection 1 h prior, colocalization with AT8
# T1 construct: from tissue; host or cells: brain of transgenic P301S tau mice (C57Bl/6 background)
# T1 sequence (P10636 1-383 isoform P10636-6 P243S): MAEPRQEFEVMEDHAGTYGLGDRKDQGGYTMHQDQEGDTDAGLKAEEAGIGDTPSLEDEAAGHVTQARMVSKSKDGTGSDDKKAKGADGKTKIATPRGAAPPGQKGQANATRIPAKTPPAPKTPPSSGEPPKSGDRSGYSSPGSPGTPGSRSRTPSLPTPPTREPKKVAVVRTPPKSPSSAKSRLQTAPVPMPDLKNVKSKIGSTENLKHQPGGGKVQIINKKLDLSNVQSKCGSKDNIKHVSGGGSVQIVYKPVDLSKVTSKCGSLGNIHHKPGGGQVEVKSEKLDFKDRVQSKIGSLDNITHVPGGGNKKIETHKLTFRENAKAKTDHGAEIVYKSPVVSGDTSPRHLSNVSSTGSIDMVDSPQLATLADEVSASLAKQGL
# Procedure: We next looked at the ability of LM229 to cross the blood–brain barrier (BBB), a key property of any viable neuro-radiotracer. LM229 was injected intravenously (i.v.) (1 mg/kg weight), and after 1 h, WT and P301S tau mice were perfused-fixed and brain sections were imaged under a fluorescence microscope. […] However, we await a comparison of PBB3 and LM229 by PET imaging to determine their relativity properties as in vivo imaging probes.
# Mice were injected intravenously (i.v.) with 50 μM LM229 or PBB3 (DMSO) diluted in 50:50 ethanol/PBS. Animals were then perfused (4% PFA) 1 h post-i.v.
# [3] = target: T2, 4R tau151-391 aggregates in brainstem sections from SHR72 rats (Homo sapiens, UniProt P10636); experiment: Binding to SHR72 transgenic rat brain sections; settings: 50 μM, colocalization with AT8
# T2 construct: tissue AXON Neuroscience; host or cells: brain (brainstem) sections of SHR72 transgenic rats
# T2 sequence (P10636 468-708): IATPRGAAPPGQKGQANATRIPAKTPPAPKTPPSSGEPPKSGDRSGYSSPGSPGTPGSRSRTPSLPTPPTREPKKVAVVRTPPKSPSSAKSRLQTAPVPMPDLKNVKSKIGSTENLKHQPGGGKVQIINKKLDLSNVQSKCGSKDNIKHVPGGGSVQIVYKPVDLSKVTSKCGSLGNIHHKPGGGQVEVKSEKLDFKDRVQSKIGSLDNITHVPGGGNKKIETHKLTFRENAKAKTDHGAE
# Excerpt: (§2) Since future PET studies for development of these compounds would require kinetic modeling for their assessment in vivo, we tested their performance in tau transgenic rats. Rat brains and blood volumes are about 6- and 10-fold larger, respectively, than those of mice and thus enable higher resolution imaging and ample volume for repeated blood sampling. We used two transgenic rat lines expressing human-truncated tau comprising the proline-rich region and either three microtubule binding domains (3R tau151-391, SH24)[28] or four microtubule binding domains (4R tau151-391, SHR72).[29] […] However, compared to the SHR24 rat brain sections, there were less inclusions detected, which seems to indicate the compounds have preferential binding toward the three repeat forms of tau in these rat models.
# Fresh frozen rat brain coronal sections (10 μm) were stored on slides at −80 °C until use. Sections were fixed in ice cold acetone for 10 min and air-dried and then rehydrated twice for 5 min with buffer (10 mM PBS with 0.1% Triton X-100) before application of 5% bovine serum albumin for 1 h and two more 5 min buffer washes. […] The green autofluorescence of PBB3 and LM229 was visualized using a 488 nm filter and fluorescence of AT8 using a 568 nm filter on a Leica DM6000 microscope.
# [4] = target: T3, 3R tau151-391 aggregates in cortical sections from SHR24 rats (Homo sapiens, UniProt P10636); experiment: Binding to SHR24 transgenic rat brain sections; settings: 50 μM, colocalization with AT8
# T3 construct: tissue AXON Neuroscience; host or cells: brain (cortex) sections of SHR24 transgenic rats
# T3 sequence (P10636 151-360 isoform P10636-5): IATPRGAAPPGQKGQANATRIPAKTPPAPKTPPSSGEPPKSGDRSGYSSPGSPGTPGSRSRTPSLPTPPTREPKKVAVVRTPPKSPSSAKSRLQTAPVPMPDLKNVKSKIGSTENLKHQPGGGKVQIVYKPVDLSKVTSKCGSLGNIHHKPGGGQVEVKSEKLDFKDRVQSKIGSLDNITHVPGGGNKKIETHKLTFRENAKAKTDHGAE
# Excerpt: as §2
# (§3) Fresh frozen rat brain coronal sections (10 μm) were stored on slides at −80 °C until use. Sections were fixed in ice cold acetone for 10 min and air-dried and then rehydrated twice for 5 min with buffer (10 mM PBS with 0.1% Triton X-100) before application of 5% bovine serum albumin for 1 h and two more 5 min buffer washes. Primary monoclonal antibody AT8 (Thermo MN1020, 1:1000) was added overnight at 4 °C, followed by 1 h incubation with a mixture of secondary AlexaFluor555 goat anti-mouse antibody (1:1000) and 50 μM PBB3 or LM229 in 50:50 ethanol/buffer. Following two 5 min washes in buffer, the slides were air-dried and cover-slipped using Fluorsave before analysis. The green autofluorescence of PBB3 and LM229 was visualized using a 488 nm filter and fluorescence of AT8 using a 568 nm filter on a Leica DM6000 microscope.
# [5] = tested on: 3R tau151-391 aggregates in cortical sections from SHR24 rats; experiment: Binding to SHR24 transgenic rat brain sections; settings: SHR24 (3R) vs SHR72 (4R) brain tissue
# Excerpt: as §2, §3
# tau fibrils [6] = target: tau fibrils; design: method as in PMID 28087578; settings: read-out: Kd, previously reported value; cited from earlier work
# [7] = target: T4, heparin-induced synthetic recombinant tau fibrils (tau-441 human) (Homo sapiens, UniProt P10636); experiment: Fluorescence quenching assay of compound binding to heparin-induced synthetic recombinant tau fibrils; settings: read-out: Kd of compound binding to heparin-induced synthetic tau fibrils determined by fluorimetry
# T4 construct: purchased Eurogentec
# T4 sequence (P10636 1-441 isoform P10636-8): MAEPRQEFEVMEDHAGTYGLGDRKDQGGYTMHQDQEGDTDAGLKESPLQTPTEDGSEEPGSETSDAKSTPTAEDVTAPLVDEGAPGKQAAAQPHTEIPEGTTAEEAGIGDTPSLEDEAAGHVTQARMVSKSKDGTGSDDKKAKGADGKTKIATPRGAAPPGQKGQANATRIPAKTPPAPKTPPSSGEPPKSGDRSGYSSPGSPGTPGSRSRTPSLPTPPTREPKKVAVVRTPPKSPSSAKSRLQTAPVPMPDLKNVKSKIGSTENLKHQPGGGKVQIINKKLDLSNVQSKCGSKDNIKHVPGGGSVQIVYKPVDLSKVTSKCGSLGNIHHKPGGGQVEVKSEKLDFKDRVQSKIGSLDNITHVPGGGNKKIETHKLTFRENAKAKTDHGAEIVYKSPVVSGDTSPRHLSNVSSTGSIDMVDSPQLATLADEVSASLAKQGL
# Procedure: All compounds were assessed for their ability to bind to synthetic recombinant tau fibrils using a fluorescence quenching assay[20] […] Binding affinities for some compounds (141, 164, 166, 169, 171, and 207) could not be assessed with this assay because of negligible changes in fluorescence intensity. […] This compound was then selected for further characterization and development.
# All reagents and solvents were used as supplied or purified using standard procedures as necessary. Analytical separation was conducted on an Ultimate 3000 HPLC system (Thermo Scientific). [^11C]CO2 was produced via the ^14N(p,α) nuclear reaction using GE PETtrace cyclotron applying 16.5 MeV protons onto 0.5% oxygen in nitrogen gas. [^11C]Methyl iodide was synthesized on a GE Medical Systems MeI MicroLab. A F-4500 FL spectrophotometer (Chemical Engineering department, University of Cambridge) was used to do fluorescence scan of all of the compounds mixed with tau fibrils. Excitation wavelength was 365 nm, and emission was scanned from 400 to 600 nm. With parameters, setting excitation slit was 5.0 nm, emission slit was 20.0 nm, PMT voltage was 950 V, and response was 0.5 s.
# Monomeric tau (tau-441 human) lyophilized powder was obtained from Eurogentec. Tau monomers (100 μM) were prepared in 20 mM BES buffer (pH 7.4 with 25 mM NaCl and 2 mM dithiothreitol and incubated at 56 °C for 10 min. After being cooled to room temperature in a water bath, heparin (25 μM) and a protease inhibitor mix were added and incubated at 37 °C for 10 days. […]
# Binding affinity of all compounds with tau fibrils […]
# All other compounds binding affinit ies towards tau fibrils
# were then tested by fluorescent binding assay. […]
# [8] = In vivo PET studies in wild-type and P301S tau mice; design: species or system mouse; settings: for Maximum brain uptake (%ID/g max): whole brain
# Excerpt: We then performed preliminary in vivo PET studies with [^11C]L229 in both WT and transgenic P310S tau mice. […] Further PET studies are required to fully characterize the in vivo pharmacokinetics of the radiotracer in both mice and rats.
# These studies were regulated under the Animals (Scientific Procedures) Act 1986 Amendment Regulations 2012 following ethical review by the University of Cambridge Animal Welfare and Ethical Review Body (AWERB). The mice were anesthetized with 5% isoflurane, and general anesthesia was maintained using 1.5% isoflurane. The anesthetized mice were placed prone on the bed of a microPET Focus-220 scanner (Concorde Microsystems, Knoxville, TN). Body temperature was maintained at 37 °C using a heating blanket connected to a rectal thermistor probe. Blood oxygen saturation as well as heart rate and breathing rate were monitored and maintained within normal limits using a noninvasive mouseOX pulse-oximeter sensor (Starr Life Science Corp., Oakmont, PA) attached to the thigh. Before the injection of a tracer, a transmission scan was performed with a 68Ge point source for attenuation and scatter correction of 511 keV photons. [^11C]LM229 was injected via the tail vein over 30 s, followed by a 15 s heparin–saline flush. Dynamic data were acquired in list mode for 90 min. Data were subsequently Fourier rebinned in following time frames: 12 × 5 s, 6 × 10 s, 3 × 20 s, 4 × 30 s, 5 × 60 s, 10 × 120 s, 12 × 5 min. Corrections were applied for randoms, dead time, normalization, attenuation, and decay. Fourier rebinning was used to compress the 4D sinograms to 3D before reconstruction with a 2D-filtered back projection with a Hann window cutoff at the Nyquist frequency. The image voxel size was 0.95 × 0.95 × 0.80 mm, with an array size of 128 × 128 × 95.
# Three-dimensional volumes of interest (VOIs) for mice brain MRI template available on PMOD software (version 3.8; PMOD technologies, Zurich, Switzerland) were modified to obtain a whole brain VOI. […] The results were expressed as % injected dose per gram, assuming a specific gravity of 1 g·mL^–1 for brain tissue.
# [9] = tested on: tau tangles in transgenic mice expressing mutant human P301L tau; design: method as in PMID 27030397, PMID 23411393; settings: in vitro and microPET in vivo imaging; cited from earlier work
# [10] = tested on: brainstem of P301S tau mice; design: method as in PMID 29930508; settings: P301S tau mice vs WT; cited from earlier work
# tau fibrils [11] = target: T5, tau fibrils (Homo sapiens, UniProt P10636); experiment: Microscale thermophoresis screen for interaction with tau fibrils; type: binding; settings: 1 µM and 1 nM compound mixed with 100 nM tau fibrils
# T5 construct: purchased Eurogentec
# T5 sequence (P10636 1-441 isoform P10636-8): as above
# Procedure: buffer) for 1 h at room temperature. Following 3 washes in PBS/0.1% Triton X-100, 50 µM LM229 (diluted in 1:1 blocking buffer/ethanol) was then added for 1 h at room temperature. Nuclei were stained with DAPI (0.1mg/ml for 10 min), washed and tissues mounted in FluorSaveTM prior to analysis using fluorescence […]
# Binding affinity of all compounds with tau fibrils
# Microscale Thermophoresis was first used to screen whether there were interaction between the compounds and tau fibrils. For this procedure 200 µL, 5 µM tau fibrils were mixed with 200 µL, 10 µM NT647-NHS dye and then incubated in dark for 30 minutes. Further dialysis (18 hours, changing the buffer after the first 4 hours) was used to remove the free dye giving a 2.5 µM solution of label led protein. The label ling ratio of dye unit per tau monomer was then tested by a method recommended by the instrument manufacturer, NanoTemper Technologies, which is based on a cal ibration curve. The 2.5 µM tau fibril solution was then aliquoted prior to use. The unused samples were frozen at -20 °C. MST measurements were conducted using Monolith NT.115 instrument (NanoTemper Technologies, Germany) at 25 °C. Assays were conducted at 40 % MST Power and 90 % IR-laser power. With each compound, two concentrations (1µM and 1nM) were used to mix with 100nM tau fibrils and then loaded to the MST instrument to read out the MST data curve. Only three compounds 166, 164 […]
# All other compounds binding affinit ies towards tau fibrils were then tested by fluorescent binding assay.
# as §1
# DRG were incubated with the indicated concentrations of LM229 or PBB3 for 20 minutes at room temperature, washed 3 times in PBS, and imaged on a Leica DMI 4000B microscope using a Leica DFC3000 G camera and the Leica application suite 4.0.0.11706. Fluorescence intensity was measured in 10-16 neurons each from 3 independent cultures using Image J (imagej.nih.gov/ij/). Results shown are mean ± SD. Non linear least squares curve fitting was applied using http://faculty.gvsu.edu/carlsont/232lab/nonlin2.html. […]
smiles,measurement,setting,value
"CNc1ccc(/C=C/C=C/c2nc3ccc(O)cc3s2)cn1 [PBB3, reference compound]",Concentration at which binding to DRG neurons with tau aggregates was seen,[1],30 to 100 µM
same,Ex vivo binding in P301S tau brain tissue,[2],significant nonspecific binding
same,Binding to tau in SHR72 rat brain sections,[3],bound to tau in brain sections from SHR72 rats
same,Binding to pathological aggregated tau in SHR24 rat brain sections,[4],bound with similar properties to pathological aggregated tau
same,Preference between 3R and 4R tau inclusions in rat models,[5],preferential binding toward the 3R tau inclusions
same,Kd,tau fibrils [6],1.3 nM
same,Kd,[7],1.4 nM
[11CH3]Nc1ccc(/C=C/C=C/c2nc3cc(F)c(O)cc3s2)cn1 [[^11C]LM229],Maximum brain uptake (%ID/g max),[8]; P301S mouse,2.38 %ID/g
same,Time of maximum brain uptake,[8]; WT and P301S mice,within the first minute
same,Maximum brain uptake (%ID/g max),[8]; WT mouse,1.56 %ID/g
[18F]c1ccc(-c2ccc3c(c2)[nH]c2ccncc23)cn1 [[^18F]T807],Specific binding to tau tangles in P301L tau mice,[9],no specific binding
same,Difference in retention in brainstem compared to control WT mice,[10],no more than 23%
Oc1ccc2nc(/C=C/C=C/c3ccc(F)nc3)sc2c1 [compound 148],Kd,[7],56 nM
Oc1ccc2nc(/C=C/C=C/c3ccc(F)cn3)sc2c1 [compound 152],Kd,[7],353 nM
Fc1ccc(/C=C/C=C/c2nc3ccccc3s2)nc1 [compound 164],Change of the MST data curve,tau fibrils [11],no changes
Oc1ccc2sc(/C=C/C=C/c3ccc(F)cn3)nc2c1 [compound 166],Change of the MST data curve,tau fibrils [11],no changes
Fc1ccc(/C=C/C=C/c2nc3ccccc3s2)cn1 [compound 169],Change of the MST data curve,tau fibrils [11],no changes
CNc1ccc(/C=C/C=C/c2nc3cc(F)c(OC)cc3s2)cn1 [compound 225],Kd,[7],1.1 nM
CNc1ccc(/C=C/C=C/c2nc3cc(OCCF)ccc3s2)cn1 [compound 236],Kd,[7],454 nM
